In patent US9434743B2, “Indazole derivatives” (TAKEDA PHARMACEUTICAL COMPANY LIMITED, priority 2012, dated 2016):

Experiments:
human MetAP2 enzyme [1] = target: T1, human MetAP2 enzyme (Homo sapiens, UniProt P50579); assay: MetAP2 enzyme assay, enzyme complexed with cobalt ions; details: MetAP2 Co pIC50, MetAP2 enzyme complexed with cobalt ions; Met-AMC substrate at Km
Experimental: DNA encoding the full-length sequence of human MetAP2 enzyme is amplified by PCR and cloned into a pFastBac expression vector (Invitrogen). Recombinant baculovirus incorporating the MetAP2 construct is generated by transposition using the Bac-to-Bac system (Invitrogen). The expression of recombinant protein is carried out by infection of Spodoptera frugiperda Sf9 cells (Invitrogen) in 5 L Wave Bioreactors (Wave Biotech). Recombinant protein is isolated from cellular extracts by binding to an SP Hitrap Fast Flow or SP Sepharose (Sigma) column, and the protein is eluted using a NaCl gradient. Partially purified extracts of MetAP2 are further purified by an AKTA FPLC over a Superdex-200 column (GE). The purity of MetAP2 protein is determined on denaturing SDS-PAGE gel.
The results for each well are expressed as percent inhibition and calculated using the equation:

human MetAP2 enzyme [2] = target: T1, human MetAP2 enzyme; assay: MetAP2 enzyme assay, enzyme complexed with manganese ions; details: MetAP2 Mn pIC50, MetAP2 enzyme complexed with manganese ions; Met-AMC substrate at Km

T1 sequence (P50579 whole entry): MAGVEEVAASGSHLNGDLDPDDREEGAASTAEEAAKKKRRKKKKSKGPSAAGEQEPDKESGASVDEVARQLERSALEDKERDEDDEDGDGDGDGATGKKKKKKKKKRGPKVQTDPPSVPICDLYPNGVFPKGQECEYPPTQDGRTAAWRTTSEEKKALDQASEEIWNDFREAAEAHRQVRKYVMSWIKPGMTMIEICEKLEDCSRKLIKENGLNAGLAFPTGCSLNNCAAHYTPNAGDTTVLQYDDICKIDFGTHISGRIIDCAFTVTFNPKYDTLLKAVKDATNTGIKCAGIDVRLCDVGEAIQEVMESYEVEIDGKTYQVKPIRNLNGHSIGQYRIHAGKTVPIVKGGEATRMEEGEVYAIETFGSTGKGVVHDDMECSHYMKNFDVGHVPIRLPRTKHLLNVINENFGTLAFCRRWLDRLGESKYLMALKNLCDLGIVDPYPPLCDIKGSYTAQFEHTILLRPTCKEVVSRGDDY

IC50 (human MetAP2 enzyme [1]) [nM] | IC50 (human MetAP2 enzyme [2]) [nM] | Compound
15.8 | 12.6 | Cc1ccc(S(=O)(=O)N(C)C)cc1-c1cc(C(F)(F)F)cc2[nH]ncc12 [Example 127, N,N,4-trimethyl-3-(6-(trifluoromethyl)-1H-indazol-4-yl)benzenesulfonamide]
794 | 39.8 | Cc1onc(N)c1-c1cc(C(F)(F)F)cc2[nH]ncc12 [Example 166, 5-methyl-4-(6-(trifluoromethyl)-1H-indazol-4-yl)isoxazol-3-amine]
1580 | 79.4 | Cc1ccc(N)c(-c2cc(C(F)(F)F)cc3[nH]ncc23)n1 [Example 188, 6-methyl-2-(6-(trifluoromethyl)-1H-indazol-4-yl)pyridin-3-amine]
39.8 | 20 | CCN(CC)C(=O)c1cccc(-c2cc(C(F)(F)F)cc3[nH]ncc23)c1 [Example 32, N,N-diethyl-3-(6-(trifluoromethyl)-1H-indazol-4-yl)benzamide]
31.6 | 6.31 | COc1nc(C(=O)N2CC(O)C2)ccc1-c1cc(C(F)(F)F)cc2[nH]ncc12 [Example 395, (3-hydroxyazetidin-1-yl)(6-methoxy-5-(6-(trifluoromethyl)-1H-indazol-4-yl)pyridin-2-yl)methanone]
158 | 12.6 | OCCc1cccc(-c2cc(C(F)(F)F)cc3[nH]ncc23)c1 [Example 106, 2-(3-(6-(trifluoromethyl)-1H-indazol-4-yl)phenyl)ethanol]
20 | 15.8 | COC(=O)c1ccc(OC)c(-c2cc(C(F)(F)F)cc3[nH]ncc23)c1 [Example 263, methyl 4-methoxy-3-(6-(trifluoromethyl)-1H-indazol-4-yl)benzoate]
79.4 | 6.31 | O=C(c1cccc(-c2cc(C(F)(F)F)cc3[nH]ncc23)c1)N1CCCC1 [Example 85, pyrrolidin-1-yl(3-(6-(trifluoromethyl)-1H-indazol-4-yl)phenyl)methanone]
100 | 5.01 | Nc1ncccc1-c1cc(C(F)(F)F)cc2[nH]ncc12 [Example 78, 3-(6-(trifluoromethyl)-1H-indazol-4-yl)pyridin-2-amine]
20 | 6.31 | CN1C(=O)COc2ccc(-c3cc(C(F)(F)F)cc4[nH]ncc34)cc21 [Example 296, 4-methyl-6-(6-(trifluoromethyl)-1H-indazol-4-yl)-2H-benzo[b][1,4]oxazin-3(4H)-one]
63.1 | 10 | COc1ncc(-c2cc(C(F)(F)F)cc3[nH]ncc23)c2cc[nH]c12 [Example 291, 4-(7-methoxy-1H-pyrrolo[2,3-c]pyridin-4-yl)-6-(trifluoromethyl)-1H-indazole]
398 | 7.94 | O=C(NCCO)c1c[nH]c(=O)c(-c2cc(C(F)(F)F)cc3[nH]ncc23)c1 [Example 299, N-(2-hydroxyethyl)-6-oxo-5-(6-(trifluoromethyl)-1H-indazol-4-yl)-1,6-dihydropyridine-3-carboxamide]
100 | 20 | Cc1nn(CC#N)c(C)c1-c1cc(C(F)(F)F)cc2[nH]ncc12 [Example 170, 2-(3,5-dimethyl-4-(6-(trifluoromethyl)-1H-indazol-4-yl)-1H-pyrazol-1-yl)acetonitrile]
50.1 | 3.98 | CNC(=O)c1ccc(-c2cc(C(F)(F)F)cc3[nH]ncc23)cc1F [Example 92, 2-fluoro-N-methyl-4-(6-(trifluoromethyl)-1H-indazol-4-yl)benzamide]
63.1 | 3.98 | NC(=O)c1cc(-c2cc(C(F)(F)F)cc3[nH]ncc23)ccn1 [Example 283, 4-(6-(trifluoromethyl)-1H-indazol-4-yl)picolinamide]
631 | 20 | Cn1cc(C(=O)N2CCOCC2)cc(-c2cc(C(F)(F)F)cc3[nH]ncc23)c1=O [Example 314, 1-methyl-5-(morpholine-4-carbonyl)-3-(6-(trifluoromethyl)-1H-indazol-4-yl)pyridin-2(1H)-one]
25.1 | 2.51 | FC(F)(F)c1cc(-c2cnn(Cc3ccccn3)c2)c2cn[nH]c2c1 [Example 72, 4-(1-(pyridin-2-ylmethyl)-1H-pyrazol-4-yl)-6-(trifluoromethyl)-1H-indazole]
63.1 | 10 | CCOc1ncccc1-c1cc(C(F)(F)F)cc2[nH]ncc12 [Example 133, 4-(2-ethoxypyridin-3-yl)-6-(trifluoromethyl)-1H-indazole]
39.8 | 15.8 | COCCOc1ccc(-c2cc(C(F)(F)F)cc3[nH]ncc23)c(C)n1 [Example 362, 4-(6-(2-methoxyethoxy)-2-methylpyridin-3-yl)-6-(trifluoromethyl)-1H-indazole]
501 | 20 | COc1ccc(N)c(-c2cc(C(F)(F)F)cc3[nH]ncc23)n1 [Example 184, 6-methoxy-2-(6-(trifluoromethyl)-1H-indazol-4-yl)pyridin-3-amine]
63.1 | 7.94 | Cc1cc2cncn2cc1-c1cc(C(F)(F)F)cc2[nH]ncc12 [Example 388, 4-(7-methylimidazo[1,5-a]pyridin-6-yl)-6-(trifluoromethyl)-1H-indazole]

The next lines start with the molecule.

Compound | IC50 (human MetAP2 enzyme [1]) [nM] | IC50 (human MetAP2 enzyme [2]) [nM]
COc1ccc(C(=O)N2CCN(C)CC2)cc1-c1cc(C(F)(F)F)cc2[nH]ncc12 [Example 266, (4-methoxy-3-(6-(trifluoromethyl)-1H-indazol-4-yl)phenyl)(4-methylpiperazin-1-yl)methanone] | 63.1 | 12.6
Cc1nn(Cc2cnn(C)c2)c(CO)c1-c1cc(C(F)(F)F)cc2[nH]ncc12 [Example 410, (3-methyl-1-((1-methyl-1H-pyrazol-4-yl)methyl)-4-(6-(trifluoromethyl)-1H-indazol-4-yl)-1H-pyrazol-5-yl)methanol] | 15.8 | 6.31
FC(F)(F)c1cc(-c2cnn(Cc3ccncc3)c2)c2cn[nH]c2c1 [Example 43, 4-(1-(pyridin-4-ylmethyl)-1H-pyrazol-4-yl)-6-(trifluoromethyl)-1H-indazole] | 79.4 | 6.31
FC(F)(F)c1cc(-c2cnc3ncccn23)c2cn[nH]c2c1 [Example 151, 3-(6-(trifluoromethyl)-1H-indazol-4-yl)imidazo[1,2-a]pyrimidine] | 200 | 6.31
Cc1c(-c2cc(C(F)(F)F)cc3[nH]ncc23)cnn1C [Example 79, 4-(1,5-dimethyl-1H-pyrazol-4-yl)-6-(trifluoromethyl)-1H-indazole] | 25.1 | 10
O=C(c1cc(-c2cc(C(F)(F)F)cc3[nH]ncc23)ccn1)N1CC(O)C1 [Example 385, (3-hydroxyazetidin-1-yl)(4-(6-(trifluoromethyl)-1H-indazol-4-yl)pyridin-2-yl)methanone] | 79.4 | 5.01
COc1ccc(-c2cc(C(F)(F)F)cc3[nH]ncc23)c(C)n1 [Example 249, 4-(6-methoxy-2-methylpyridin-3-yl)-6-(trifluoromethyl)-1H-indazole] | 79.4 | 12.6
Cc1ccc(C(=O)N2CCC(O)C2)cc1-c1cc(C(F)(F)F)cc2[nH]ncc12 (stereo not drawn) [Example 370, (3-hydroxypyrrolidin-1-yl)(4-methyl-3-(6-(trifluoromethyl)-1H-indazol-4-yl)phenyl)methanone] | 126 | 31.6
FC(F)(F)c1cc(-c2cnc3[nH]c(C(F)(F)F)nc3c2)c2cn[nH]c2c1 [Example 242, 2-(trifluoromethyl)-6-(6-(trifluoromethyl)-1H-indazol-4-yl)-3H-imidazo[4,5-b]pyridine] | 50.1 | 6.31
Cc1cn(C)c(-c2cc(C(F)(F)F)cc3[nH]ncc23)n1 [Example 163, 4-(1,4-dimethyl-1H-imidazol-2-yl)-6-(trifluoromethyl)-1H-indazole] | 794 | 12.6
Cn1cc(-c2cc(C(F)(F)F)cc3[nH]ncc23)c(=O)n(CC(N)=O)c1=O [Example 300, 2-(3-methyl-2,6-dioxo-5-(6-(trifluoromethyl)-1H-indazol-4-yl)-2,3-dihydropyrimidin-1(6H)-yl)acetamide] | 398 | 12.6
NS(=O)(=O)c1cccc(-c2cc(C(F)(F)F)cc3[nH]ncc23)c1 [Example 329, 3-(6-(trifluoromethyl)-1H-indazol-4-yl)benzenesulfonamide] | 39.8 | 15.8
Fc1c[nH]c2ncc(-c3cc(C(F)(F)F)cc4[nH]ncc34)cc12 [Example 339, 4-(3-fluoro-1H-pyrrolo[2,3-b]pyridin-5-yl)-6-(trifluoromethyl)-1H-indazole] | 126 | 20
Cc1cc(C(=O)N2CC(O)C2)ccc1-c1cc(C(F)(F)F)cc2[nH]ncc12 [Example 361, (3-hydroxyazetidin-1-yl)(3-methyl-4-(6-(trifluoromethyl)-1H-indazol-4-yl)phenyl)methanone] | 15.8 | 10
O=C(NCCO)c1cc(-c2cc(C(F)(F)F)cc3[nH]ncc23)c[nH]c1=O [Example 228, N-(2-hydroxyethyl)-2-oxo-5-(6-(trifluoromethyl)-1H-indazol-4-yl)-1,2-dihydropyridine-3-carboxamide] | 158 | 5.01
CC(C)(C)C(=O)Nc1ncccc1-c1cc(C(F)(F)F)cc2[nH]ncc12 [Example 73, N-(3-(6-(trifluoromethyl)-1H-indazol-4-yl)pyridin-2-yl)pivalamide] | 200 | 79.4
Cc1nccc(N)c1-c1cc(C(F)(F)F)cc2[nH]ncc12 [Example 252, 2-methyl-3-(6-(trifluoromethyl)-1H-indazol-4-yl)pyridin-4-amine] | 1580 | 100
O=C(NCC(O)CO)c1c[nH]c(=O)c(-c2cc(C(F)(F)F)cc3[nH]ncc23)c1 (stereo not drawn) [Example 337, N-(2,3-dihydroxypropyl)-6-oxo-5-(6-(trifluoromethyl)-1H-indazol-4-yl)-1,6-dihydropyridine-3-carboxamide] | 398 | 15.8
